Here are results for one compound from US20090176696A1, “Methods And Compositions For Modulating An Immune Response” (priority 2006, published 2009).

Each structure is given as a SMILES string. Entries after “also recorded” stand apart in the source; their conditions may differ.

The subject of data set [1] is KLH-specific T cell and antibody responses. The experiment in a line: TCT injection 6 hours before immunisation with KLH or KLH with alum; ex vivo spleen and lymph node responses and antibody titres. The class given is in vivo, BALB/c mice. The procedure: Cohorts of BALB/c mice were injected sub-cutaneously (s.c.) into the flank with PBS or TCT alone, and then immunised sub-cutaneously with KLH or KLH with alum 6 hours later. The adaptive immune response was assessed 14 days later by stimulating spleen and local inguinal lymph node cells with antigen ex vivo. Spleen (FIG. 6A) and lymph node (FIG. 6B) cell suspensions were cultured in the presence of various concentrations of KLH (2, 10, 50 μg/ml) and PMA/anti-CD3 or medium were used as positive and negative controls respectively. Supernatants were collected 72 hours later, fresh medium was added to the wells and cells were incubated overnight. At day 4, 2 μCi of ^3H thymidine was added to each well. Plates were incubated for a further 6 hours, and ^3H incorporation was determined.
In addition, supernatants were tested for IFN-gamma, IL-10, IL-4 and IL-5 by ELISA (spleen—FIG. 7 and lymph nodes—FIG. 8). KLH-specific antibody titres were also determined by ELISA (FIG. 9).

Data set [2] relates to cultured hamster respiratory epithelia. As to conditions: B. pertussis TCT; cited from earlier work.
The next data set addresses T1, murine NOD1 (Mus musculus, UniProt Q8BHB0).
T1 sequence (Q8BHB0 1-953): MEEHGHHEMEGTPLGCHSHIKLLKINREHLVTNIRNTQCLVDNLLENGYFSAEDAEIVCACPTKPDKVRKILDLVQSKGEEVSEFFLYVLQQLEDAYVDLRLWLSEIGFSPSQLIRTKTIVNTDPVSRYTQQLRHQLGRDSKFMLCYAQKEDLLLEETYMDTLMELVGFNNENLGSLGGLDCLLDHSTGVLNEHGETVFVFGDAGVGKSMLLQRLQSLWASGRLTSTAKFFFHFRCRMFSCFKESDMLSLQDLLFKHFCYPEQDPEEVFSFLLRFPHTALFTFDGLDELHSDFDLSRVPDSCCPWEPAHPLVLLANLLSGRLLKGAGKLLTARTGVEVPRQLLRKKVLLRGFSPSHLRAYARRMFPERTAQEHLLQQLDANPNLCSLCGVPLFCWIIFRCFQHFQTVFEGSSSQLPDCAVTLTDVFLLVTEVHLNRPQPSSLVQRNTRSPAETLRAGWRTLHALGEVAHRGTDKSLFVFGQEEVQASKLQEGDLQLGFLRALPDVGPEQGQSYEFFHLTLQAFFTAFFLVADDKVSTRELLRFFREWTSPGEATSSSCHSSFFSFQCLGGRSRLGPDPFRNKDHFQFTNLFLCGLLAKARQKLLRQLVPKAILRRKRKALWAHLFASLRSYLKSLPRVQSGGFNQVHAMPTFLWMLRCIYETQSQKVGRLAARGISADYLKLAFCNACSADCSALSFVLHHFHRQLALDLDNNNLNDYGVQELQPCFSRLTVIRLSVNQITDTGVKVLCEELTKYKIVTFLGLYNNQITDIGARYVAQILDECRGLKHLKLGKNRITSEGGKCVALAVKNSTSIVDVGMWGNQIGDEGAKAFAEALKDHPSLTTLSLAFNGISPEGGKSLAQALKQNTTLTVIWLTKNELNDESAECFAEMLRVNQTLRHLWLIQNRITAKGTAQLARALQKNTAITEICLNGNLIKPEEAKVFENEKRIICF
The conditions noted are these: cited from earlier work.

The mark [3] stands for this setting: TCT 6 hours before KLH and alum.
[4] abbreviates: TCT 6 hours before KLH only or KLH and alum.
Where [5] appears, read: TCT 6 hours before alum adsorbed KLH, day 14.
The mark [6] stands for this setting: TCT 6 hours before immunisation KLH.

Turning to `CC(=O)NC1C(OC2C3COC(O3)C(NC(C)=O)C2OC(C)C(=O)NC(C)C(=O)NC(CCC(=O)NC(CCCC(N)C(=O)NC(C)C(=O)O)C(=O)O)C(=O)O)OC(CO)C(O)C1O` (centres unmarked) [TCT, N-acetylglucosaminyl-1,6-anhydro-N-acetylmuramylalanyl-γ-glutamyldiaminopimelylalanine], in data set [1] (setting [3]), the “IFN-gamma production, spleen cells” value is reported as “reduced”; the “IL-4 production, spleen cells” value is on record as “reduced”; the “IL-5 production, spleen cells” value is on record as “reduced”; the “KLH-specific IL-10 production by lymph node cells” value was “severely impaired; also recorded: attenuated”. Moreover, in data set [1] (TCT 6 hours before KLH and alum, p<0.001), the “KLH-specific IL-10 production by spleen cells” value was “significant reduction”. For the same compound, in data set [1] (setting [4]), the “antigen-specific IgG1 titres” value was “no significant effect”, the “antigen-specific IgG2a titres” value is on record as “no significant effect” and the “total KLH-specific IgG production” value is reported as “no significant effect”. Further, in data set [1] (setting [5]), the “proliferation response to KLH, lymph node cells” value is “reduction” and the “proliferation response to KLH, spleen cells” value is on record as “reduction”. Also, in data set [1] (setting [6]), the “Antigen-specific IL-5 production, lymph node cells” value is “reduced” and the “antigen-specific IL-4 production, lymph node cells” value is given as “reduced”. In addition, the “IFN-gamma production, spleen cells” value in data set [1] (TCT before immunisation with KLH and PBS) was “reduced”. Moreover, in data set [1] (mice immunised with KLH and PBS), the “proliferation response, spleen cells” value was “reduced”. Moreover, the “antigen-specific IFN-gamma, lymph node cells” value in data set [1] (mice immunised with KLH and alum) is listed as “abrogated”. Moreover, the “ciliostasis and ciliated cell destruction” value in data set [2] is on record as “causes ciliostasis, ciliated cell destruction”. Also, at murine NOD1, the “NOD1 detection of TCT” value is given as “did so effectively”.
